The values that follow come from US20030032620A1, “Low molecular weight chondroitin sulphate compound having cosmetic activity” (priority 2001, published 2003).

What all share (assay type): cell-based
Holding throughout (conditions): human fibroblast culture, radioactive labelling

In experiment [1] the test system is human dermal fibroblasts. In words: Leucine incorporation (protein synthesis) in human fibroblast cultures. The source says: (§1) In another embodiment of the invention the CSBP obtained in the present example was characterised by its efficiency in stimulating the fundamental metabolism of human dermal fibroblasts, more particularly by incorporation of various markers such as thymidine (cell growth), leucine (protein synthesis) and glucosamine (synthesis of GAG).
(§2) Tests in vitro on human fibroblast cultures are a means of evaluating the capacity of CSBP to stimulate the fundamental metabolism of the extracellular matrix of the cutis. Under conventional conditions of cultivation in triplicate, the CSBP according to the invention and positive references (EGF, epidermis growth factor at 10 ng/ml, TGF-β human transformation factor b at 10 ng/ml and vitamin C at 20 mg/ml) were placed in contact with fibroblasts. The neosynthesis can be quantified by radioactive labelling of the specific metabolites (amino acids). Two concentrations of CSBP were tested: 2 and 0.4 mg/ml. The results obtained in the following table were subjected to the Dunnett test:
(§3) The culture conditions were as follows:
(§4) Culture medium MEM/M199: sodium bicarbonate 1.87 mg/ml, L-glutamine 2 mM, penicillin 50 IU/ml and foetal calf serum 10%.

For experiment [2], the system named is human dermal fibroblasts. Put plainly: Thymidine incorporation (cell growth) in human fibroblast cultures.
From the text: as §1, §2, §3, §4

In experiment [3] the test system is human dermal fibroblasts. In words: Glucosamine incorporation (synthesis of GAG) in human fibroblast cultures.
From the text: as §1, §2, §3, §4

On to `O=C1O[C@H]([C@@H](O)CO)C(O)=C1O` [VIT C, vitamin C, reference compound], for which the “% Leucine” value in experiment [1] (positive reference vitamin C) is listed as “VIT C: 45%”.
Take “EGF: epidermis growth factor, positive reference (NSDSECPLSHDGYCLHDGVCMYIEALDKYACNCVVGYIGERCQYRDLKWWELR; Epidermal growth factor; UniProt P01133 971-1023, looked up) [reference compound]”: the “% Thymidine” value in experiment [2] (positive reference EGF at 10 ng/ml) is listed as “EGF: 100%”.
Consider “low molecular weight chondroitin sulphate [CSBP]”, for which the “% Leucine” value in experiment [1] (CSBP 0.4 mg/ml) stood at 44 p < 0.05%; in experiment [1] (CSBP 2.0 mg/ml) it was 88 p < 0.01%. The “% Thymidine” value in experiment [2] (CSBP 0.4 mg/ml) came out at 74 p < 0.01%; in experiment [2] (CSBP 2.0 mg/ml), 183 p < 0.01%. In addition, the “% Glucosamine” value in experiment [3] (CSBP 0.4 mg/ml) stood at 57 p < 0.01%; in experiment [3] (CSBP 2.0 mg/ml) it was 178 p < 0.01%.
